Results from paper PMC10319855, “Unravelling the hidden power of esterases for biomanufacturing of short-chain esters” (Scientific Reports, 2023).

Tests used:
Settings in all cases: crude E. coli lysate 70 µg/mL protein, 0.1 M Na-phosphate pH 7, 37 °C
CE = target: T1, CE (Brettanomyces bruxellensis, UniProt A0A7D9GZZ0); assay: p-nitrophenol release, absorbance […] nm; type: biochemical
T1 construct: gene DEBR0S1_34310G; crude lysate

tEstA = target: T2, tEstA (Pseudomonas aeruginosa, UniProt O33407); assay: p-nitrophenol release, absorbance […] nm; type: biochemical
T2 construct: gene estA; crude lysate
T2 sequence (O33407 25-646): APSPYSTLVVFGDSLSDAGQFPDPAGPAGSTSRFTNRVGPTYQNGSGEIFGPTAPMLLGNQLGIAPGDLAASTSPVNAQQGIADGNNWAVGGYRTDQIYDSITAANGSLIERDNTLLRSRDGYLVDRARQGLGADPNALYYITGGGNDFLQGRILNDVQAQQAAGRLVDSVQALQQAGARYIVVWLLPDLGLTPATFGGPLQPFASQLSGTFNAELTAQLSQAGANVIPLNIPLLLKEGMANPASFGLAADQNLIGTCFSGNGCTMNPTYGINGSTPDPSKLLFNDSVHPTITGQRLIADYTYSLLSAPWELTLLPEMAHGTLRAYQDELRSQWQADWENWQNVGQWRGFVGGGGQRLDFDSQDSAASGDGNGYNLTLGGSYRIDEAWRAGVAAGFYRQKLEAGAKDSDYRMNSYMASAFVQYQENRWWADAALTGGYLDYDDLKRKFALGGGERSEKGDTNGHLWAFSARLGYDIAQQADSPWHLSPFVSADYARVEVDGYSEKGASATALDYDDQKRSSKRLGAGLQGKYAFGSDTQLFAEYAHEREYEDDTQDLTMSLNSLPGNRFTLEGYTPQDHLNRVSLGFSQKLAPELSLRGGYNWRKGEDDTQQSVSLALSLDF

EEB1 = EEB1 (Saccharomyces cerevisiae, UniProt Q02891)
Chain of EEB1 (Q02891 whole entry): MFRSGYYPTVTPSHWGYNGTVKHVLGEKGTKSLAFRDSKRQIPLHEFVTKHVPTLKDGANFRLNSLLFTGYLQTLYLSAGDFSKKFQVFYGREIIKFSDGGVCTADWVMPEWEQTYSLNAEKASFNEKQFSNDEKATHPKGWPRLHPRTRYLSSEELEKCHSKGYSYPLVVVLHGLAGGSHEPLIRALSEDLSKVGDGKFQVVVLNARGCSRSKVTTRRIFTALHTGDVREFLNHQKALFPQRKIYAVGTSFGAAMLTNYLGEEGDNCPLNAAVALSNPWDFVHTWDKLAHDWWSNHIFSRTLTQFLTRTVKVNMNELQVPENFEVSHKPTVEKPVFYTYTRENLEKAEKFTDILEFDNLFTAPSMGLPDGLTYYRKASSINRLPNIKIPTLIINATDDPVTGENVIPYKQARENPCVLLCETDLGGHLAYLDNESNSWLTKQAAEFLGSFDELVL

AcAlT = target: T3, AcAlT (Komagataella phaffii, UniProt C4QX24); assay: p-nitrophenol release, absorbance […] nm; type: biochemical
T3 construct: gene PAS_chr1-1_0419; codon-optimized gene in pET15b (pAPS07), E. coli BL21-DE3 strain SSL26; crude lysate
T3 sequence (C4QX24 1-452): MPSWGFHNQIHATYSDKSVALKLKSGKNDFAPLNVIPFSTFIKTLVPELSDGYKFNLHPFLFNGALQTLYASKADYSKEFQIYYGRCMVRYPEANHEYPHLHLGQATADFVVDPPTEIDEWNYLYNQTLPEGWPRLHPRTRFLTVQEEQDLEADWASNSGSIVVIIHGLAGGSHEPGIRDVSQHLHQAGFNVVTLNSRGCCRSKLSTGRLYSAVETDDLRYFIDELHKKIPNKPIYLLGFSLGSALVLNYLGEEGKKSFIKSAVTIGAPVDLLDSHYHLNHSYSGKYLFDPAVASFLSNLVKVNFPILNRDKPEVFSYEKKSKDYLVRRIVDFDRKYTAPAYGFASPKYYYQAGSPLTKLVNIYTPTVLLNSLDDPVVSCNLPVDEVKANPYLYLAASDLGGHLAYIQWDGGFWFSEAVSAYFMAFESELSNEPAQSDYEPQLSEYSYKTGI

T1 sequence (A0A7D9GZZ0 entry or part of it): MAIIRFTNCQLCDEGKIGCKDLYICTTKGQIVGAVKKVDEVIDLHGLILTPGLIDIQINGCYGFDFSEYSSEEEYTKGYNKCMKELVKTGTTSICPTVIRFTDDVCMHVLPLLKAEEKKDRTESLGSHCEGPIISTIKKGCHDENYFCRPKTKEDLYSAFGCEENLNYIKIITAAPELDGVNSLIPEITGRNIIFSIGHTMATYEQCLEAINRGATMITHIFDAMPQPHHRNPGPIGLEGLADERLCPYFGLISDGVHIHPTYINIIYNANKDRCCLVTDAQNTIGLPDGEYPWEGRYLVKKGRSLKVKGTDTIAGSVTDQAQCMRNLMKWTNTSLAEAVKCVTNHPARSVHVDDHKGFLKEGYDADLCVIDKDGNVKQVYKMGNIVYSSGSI

In the case of CC(=O)Oc1ccc([N+](=O)[O-])cc1 [p-nitrophenyl acetate], the KM (CE) is reported as “CE and tEstA, on the other hand, indicated relatively moderate hydrolysis activity with higher KM”, the KM (tEstA) is reported as “CE and tEstA, on the other hand, indicated relatively moderate hydrolysis activity with higher KM” and the KM (EEB1) is reported as “KM values revealed that EEB1 exhibited the highest catalytic efficiency for pNPA hydrolysis”. The KM (AcAlT) was “AcAlT, despite being acyltransferase, showed the second highest efficiency and relatively lower KM”.
